The results in this text go back to patent US11045519B2, “Arginine-rich polypeptide compositions and methods of using same” (UNM Rainforest Innovations, priority 2017, dated 2021).

Experiment [1] deals with HPV16 PsVs. Description: HPV16 PsV binding to HaCaT cells at 4° C. (L1 immunoblot / immunofluorescence). The format is cell-based. The protocol: FIG. 4. PolyR treatment of host cells inhibits HPV16 binding to cells. (A) Confluent HaCaT cell monolayers were treated with 1 μM polyR (in CM) for 30 minutes, before adding 100 vge/cell HPV16 PsVs, and incubated at 4° C. for one hour (to promote binding but prevent virus internalization). After washing out of unbound virus, cells were lysed (25 mM Tris pH7.5, 150 mM NaCl, 1% Triton-X100 supplemented with protease inhibitors) and centrifuged at 16,000×g for 10 minutes. Protein concentrations in supernatant were measured using the Bradford method (Bio-Rad Laboratories, Inc., Hercules, Calif.). Samples were boiled in SDS-containing sample buffer, and aliquots containing equal amount of protein ([…] to 200 μg) separated by SDS-polyacrylamide gel electrophoresis (SDS-PAGE), using 10% gel. Proteins were transferred onto polyvinylidene difluoride (PVDF) membranes and subjected to analysis using anti-HPV16 L1 primary antibody (Camvir-1, sc-47699, Santa Cruz Biotechnology, Inc., Dallas, Tex.;1:5000 dilution) for detection of HPV16 major capsid protein, L1. Proteins were visualized by enhanced chemiluminescence (SUPERSIGNAL West Pico Chemiluminescent Substrate, Thermo Fisher Scientific, Inc., Waltham, Mass.) and exposed to film (Phenix Research Products, Candler, N.C.). (B) Immunofluorescence assays were performed essentially as described previously (Surviladze et al., 2012. PLoS Pathogens 8:e1002519). HaCaT cells were grown on coverslips at approximately 50% confluence and treated with 3 μM polyR for 30 minutes at 37° C. before the addition of 1000 vge of HPV16 PsVs per coverslip. Cells were incubated for one hour at 4° C. and washed several times with PBS, before the fixation with 4% paraformaldehyde (PFA). BSA-blocked cells were incubated with rabbit polyclonal HPV16 antibody (antibody was affinity-purified from rabbit anti-HPV VLP antisera). PBS-washed slides were incubated with donkey AF488-conjugated anti-rabbit IgG secondary antibody; phalloidin-rhodamine (Cytoskeleton, Inc., Denver, Colo.) was used for actin staining. After extensive washing with PBS, cells were mounted in Gold Antifade and immunofluorescent (IF) images were captured by confocal photo-microscopy.
(A) HPV16 PsVs were bound to HaCaT cells (one hour at 4° C.), before the addition of […]. After a one-hour incubation at 4° C., unbound virus was washed out, cells were lysed and analyzed for the content of HPV L1 protein. (B) HaCaT cells were exposed to HPV 16 PsV at 4° C. in the absence of polyR, simultaneously with polyR (0 h), or one hour after polyR treatment (+1 h). After extensive washing with PBS, cells were lysed and analyzed for the content of HPV16 L1 protein.
FIG. 16. PrS pretreated cells binding of HPV16. Confluent HaCaT cell monolayers were treated with 1 μM PrS (in CM) before the addition of 200 vge/cell HPV16 PsVs and incubated at 4° C. for one hour (conditions to prevent virus internalization). After washing out of unbound virus, cells were lysed (25 mM Tris pH7.5, 150 mM NaCl, 1% Triton-X100 supplemented with protease inhibitors) and centrifuged at 16,000×g for 10 minutes. Protein concentrations in supernatant were measured using the Bradford method (Bio-Rad Laboratories, Inc., Hercules, Calif.). Samples were boiled in SDS-containing sample buffer, and aliquots containing equal amount of protein (˜50 μg to 200 μg) separated by SDS-polyacrylamide gel electrophoresis (SDS-PAGE) using 10% gel. […]
(In general: In western blotting, separated proteins are transferred to a membrane and probed.)

Experiment [2] has as its system HPV16 PsVs. In words: Internalization of cell-bound HPV16 PsV into HaCaT cells (L1 immunoblot). The following applies: HPV-bound HaCaT cells incubated 4 h. The format is cell-based. On the procedure:
FIG. 8. PolyR reduces the internalization of cell membrane-bound HPV16 PsV. HaCaT cells were incubated with HPV16 PsVs for one hour at 4° C. Unbound virus was removed from the cells by incubation with 0.25% trypsin/5 mM EDTA for 15 minutes at 37° C. Cells were pelleted and washed several times with CM (to neutralize pH) and with ice-cold PBS before adding ice-cold 0.1 M sodium acetate buffer (pH 4.5) containing 0.5 M NaCl. After a two-minute incubation on ice, cells were washed three times with PBS and lysed with RIPA [50 mM Tris (pH 7.5), 0.1% SDS, 1% sodium deoxycholate, 150 mM NaCl, 1 mM EDTA, 1% Triton X-100, 1 mM sodium vanadate, 1 mM PMSF, 10 ng/ml leupeptin, 10 ng/ml aprotinin] buffer. Immuno-blotting was performed, and the L1 protein was detected using a HPV16 L1-specific mAb (Camvir-1, sc-47699, Santa Cruz Biotechnology, Inc., Dallas, Tex.).
To investigate the effect of polyR on the penetration of cell-bound virus into host cells, HPV-bound cells were incubated for four hours in the absence or presence of polyR. […] Immuno-blotting was performed, and the L1 protein was detected using a HPV16 L1 specific mAb (Camvir-1; Santa Cruz Biotechnology, Inc., Dallas, Tex.). As HPV16 L1 is proteolytically processed during cell entry, two forms of L1 (full-length 55 kDa and the 25 kDa processed form) were detected. […]

For poly-L-arginine [polyR], in the experiment with HPV16 PsVs [1] (1 μM, 30 min pre-treatment, 100 vge/cell, 4° C. 1 h), the “HPV16 binding to pre-treated cells (L1 immunoblot)” value is recorded as “almost completely blocked HPV16 binding”. Further, in the experiment on HPV16 PsVs [1] (3 μM, 30 min pre-treatment, 4° C. 1 h), the “HPV16 bound to cell surface (confocal microscopy)” value is “dramatically reduced detection of HPV bound to the cell surface”. Besides, in the experiment with HPV16 PsVs [1] (polyR and HPV added simultaneously, 4° C.), the “reduction of HPV binding to cells” value was “≈ 50%”. In the experiment with HPV16 PsVs [2], the “internalized L1 forms (55 kDa full-length, 25 kDa processed)” value was “decreased levels of 55 kDa L1 protein and increased amounts of the 25 kDa proteolytic processed L1 form”; the “virus internalization rate (sum of IDVs of 55 kDa and 25 kDa L1 bands)” value was “had no effect on the virus internalization rate”.
